Assay results taken from ChEMBL document CHEMBL6114969, “Ultra-short lipopeptides containing d-amino acid exhibiting excellent stability and antibacterial activity against gram-positive bacteria” (Eur J Med Chem, 2025).
In brackets after ≈: the same amount, converted by molar mass. Activity calls are given as the source filed them. No cut-off for these calls is given here.

Experiments:
Staphylococcus aureus [1] = assay: Inhibition of ciprofloxacin-induced drug resistance in Staphylococcus aureus ATCC 25923 at sub-MIC measured upto 15 passages; assay type: functional, organism-based
Staphylococcus aureus [2] = assay: Antibacterial activity against methicillin-resistant Staphylococcus aureus ATCC 33591 infected in Balb/c mouse model of pneumonia infection assessed as reduction in bacterial load in lung at 10 mg/kg, ip administered thrice at 4, 8 and 12 hrs post-infection measured after 24 hrs post-infection; assay type: functional, organism-based; settings: time 20.0 hrs
Staphylococcus aureus [3] = assay: Antibacterial activity against gentamicin-resistant Staphylococcus aureus ATCC 25923 incubated for 18 to 24 hrs; assay type: functional; settings: time 18-24 hrs
Staphylococcus aureus [4] = assay: Antibacterial activity against methicillin-resistant Staphylococcus aureus ATCC 33591 infected in Balb/c mouse model of acute systemic infection assessed as reduction in bleeding in liver at 10 mg/kg, ip measured after 5 days by H and E staining based analysis; assay type: functional, organism-based; settings: time 5.0 day
Staphylococcus aureus [5] = assay: Antibacterial activity against methicillin-resistant Staphylococcus aureus ATCC 33591 incubated for 18 to 24 hrs in presence of 1 mg/ml of trypsin by broth microdilution method; assay type: functional; settings: time 18-24 hrs
Staphylococcus aureus [6] = assay: Antibacterial activity against methicillin-resistant Staphylococcus aureus ATCC 33591 infected in Balb/c mouse model of acute systemic infection assessed as reduction in bacterial count in kidney at 10 mg/kg, ip measured after 5 days; assay type: functional, organism-based; settings: time 5.0 day
Staphylococcus aureus [7] = assay: (§1) Antibacterial activity against methicillin-resistant Staphylococcus aureus ATCC 33591 infected in Balb/c mouse model of skin wound infection assessed as reduction in inflammatory cell infiltration in skin at 10 mg/kg, ip administered thrice at 1, 24 and 48 hrs post-infection measured after 14 days by H and E staining based analysis; assay type: functional, organism-based; settings: time 14.0 day
Enterococcus faecalis = assay: Antibacterial activity against Enterococcus faecalis ATCC 29212 incubated for 18 to 24 hrs by broth microdilution method; assay type: functional; settings: time 18-24 hrs
Staphylococcus aureus [8] = assay: Induction of morphological changes in methicillin-resistant Staphylococcus aureus ATCC 33591 assessed as bacterial membrane folds at 2 times MIC incubated for 2 hrs by SEM analysis; assay type: functional, organism-based
[9] = Toxicity in Balb/c mouse assessed as change in serum ALT level at 20 to 80 mg/kg, ip measured after 7 days; assay type: organism-based; settings: in vivo, 168 h, dose 20-80 mg/kg, time 7 day
[10] = Toxicity in Balb/c mouse assessed as survival rate at 40 mg/kg, ip measured after 7 days; assay type: organism-based; settings: in vivo, time 7 day
Staphylococcus aureus [11] = assay: Antibacterial activity against methicillin-resistant Staphylococcus aureus ATCC 33591 infected in Balb/c mouse model of acute systemic infection assessed as reduction in follicular structure loss in spleen at 10 mg/kg, ip measured after 5 days by H and E staining based analysis; assay type: functional, organism-based; settings: time 5.0 day
Staphylococcus aureus [12] = assay: Antibacterial activity against methicillin-resistant Staphylococcus aureus ATCC 33591 infected in Balb/c mouse model of pneumonia infection assessed as reduction in alveolar contraction in lung at 10 mg/kg, ip administered thrice at 4, 8 and 12 hrs post-infection measured after 24 hrs post-infection in presence of polymyxin B by H and E staining based analysis; assay type: functional, organism-based; settings: time 20.0 hrs
Staphylococcus aureus [13] = assay: Antibacterial activity against methicillin-resistant Staphylococcus aureus ATCC 33591 infected in Balb/c mouse model of skin wound infection assessed as crusted back wound at 10 mg/kg, ip administered thrice at 1, 24 and 48 hrs post-infection measured after 9 days in presence of polymyxin B relative to control; assay type: functional; settings: time 9 day
Staphylococcus aureus [14] = assay: as §1, with “TNF-alpha activity” for “inflammatory cell infiltration”, “days in presence of polymyxin B” for “days”, “IHC” for “H and E staining based”; assay type: functional, organism-based; settings: time 14.0 day
Staphylococcus aureus [15] = assay: Inhibition of imipenem-induced drug resistance in Staphylococcus aureus ATCC 25923 at sub-MIC measured upto 15 passages; assay type: functional, organism-based
DNA = assay: Binding affinity to genomic DNA in methicillin-resistant Staphylococcus aureus ATCC 33591 at 1 to 8 times MIC; assay type: nucleic-acid assay
Staphylococcus aureus [16] = assay: Antibacterial activity against methicillin-resistant Staphylococcus aureus ATCC 33591 infected in Balb/c mouse model of acute systemic infection assessed as reduction in inflammatory cell infiltration in liver at 10 mg/kg, ip measured after 5 days by H and E staining based analysis; assay type: functional, organism-based; settings: time 5.0 day
Staphylococcus aureus [17] = assay: Antibacterial activity against methicillin-resistant Staphylococcus aureus ATCC 33591 incubated for 18 to 24 hrs in presence of 2 mg/ml of trypsin by broth microdilution method; assay type: functional; settings: time 18-24 hrs
Staphylococcus aureus [18] = assay: as §1, with “IL-1beta activity” for “inflammatory cell infiltration”, “days in presence of polymyxin B” for “days”, “IHC” for “H and E staining based”; assay type: functional, organism-based; settings: time 14.0 day
Staphylococcus aureus [19] = assay: Antibacterial activity against methicillin-resistant Staphylococcus aureus ATCC 33591 infected in Balb/c mouse model of acute systemic infection assessed as reduction in cell swelling in liver at 10 mg/kg, ip measured after 5 days by H and E staining based analysis; assay type: functional, organism-based; settings: time 5.0 day
Staphylococcus aureus [20] = assay: Induction of morphological changes in methicillin-resistant Staphylococcus aureus ATCC 33591 assessed as large area membrane melting at 4 times MIC incubated for 2 hrs by SEM analysis; assay type: functional, organism-based
Staphylococcus aureus [21] = assay: Antibacterial activity against methicillin-resistant Staphylococcus aureus ATCC 33591 infected in Balb/c mouse model of skin wound infection assessed as wound heal at 10 mg/kg, ip administered thrice at 1, 24 and 48 hrs post-infection measured after 14 days relative to control; assay type: functional; settings: time 14 day
Staphylococcus aureus [22] = assay: Antibacterial activity against methicillin-resistant Staphylococcus aureus ATCC 33591 infected in Balb/c mouse model of pneumonia infection assessed as reduction in bacterial load in lung at 10 mg/kg, ip administered thrice at 4, 8 and 12 hrs post-infection measured after 24 hrs post-infection in presence of polymyxin B; assay type: functional, organism-based; settings: time 20.0 hrs
Staphylococcus aureus [23] = assay: Induction of cell membrane damage in methicillin-resistant Staphylococcus aureus ATCC 33591 assessed as nucleic acid leakage at 2 to 8 times MIC measured upto 360 mins by absorbance based assay; assay type: functional, organism-based
Staphylococcus aureus [24] = assay: Antibacterial activity against methicillin-resistant Staphylococcus aureus ATCC 33591 infected in Balb/c mouse model of acute systemic infection assessed as reduction in bacterial count in lung at 10 mg/kg, ip measured after 5 days; assay type: functional, organism-based; settings: time 5.0 day
[25] = Toxicity in Balb/c mouse assessed as change in serum BUN level at 20 to 80 mg/kg, ip measured after 7 days; assay type: organism-based; settings: in vivo, 168 h, dose 20-80 mg/kg, time 7 day
Staphylococcus aureus [26] = assay: Antibacterial activity against methicillin-resistant Staphylococcus aureus ATCC 33591 infected in Balb/c mouse model of acute systemic infection assessed as reduction in alveolar contraction in lung at 10 mg/kg, ip measured after 5 days by H and E staining based analysis; assay type: functional, organism-based; settings: time 5.0 day
[27] = Toxicity in Balb/c mouse assessed as cell swelling in lung at 80 mg/kg, ip measured after 7 days by H and E staining based analysis; assay type: organism-based; settings: in vivo, 168 h, time 7 day
Staphylococcus aureus [28] = assay: Destruction of cell membrane in methicillin-resistant Staphylococcus aureus ATCC 33591 at 2 to 8 times MIC by absorbance based assay; assay type: functional, organism-based; settings: time <= 360.0 min

CCCCCCCCCCCC(=O)N[C@H](CCCNC(=N)N)C(=O)N[C@H](CCCNC(=N)N)C(=O)N[C@H](Cc1c[nH]c2ccccc12)C(=O)O
inhibition (Staphylococcus aureus [1]): Active | Activity (Staphylococcus aureus [2]): Active | MIC (Staphylococcus aureus [3]): 8 µM (≈ 5.59 µg/mL) | Activity (Staphylococcus aureus [4]): Active | MIC (Staphylococcus aureus [5]): 4 µM | Activity (Staphylococcus aureus [6]): Active | Activity (Staphylococcus aureus [7]): Active | MIC (Enterococcus faecalis): 8 µM (≈ 5.59 µg/mL) | Activity (Staphylococcus aureus [8]): Active | Activity [9]: Non-toxic | survival at 168 h [10]: 0% | Activity (Staphylococcus aureus [11]): Active | Activity (Staphylococcus aureus [12]): Not active; Compound Exerted Slightly More Severe Than Compound Treatment Alone | Activity (Staphylococcus aureus [13]): 100% | Activity (Staphylococcus aureus [14]): Active | inhibition (Staphylococcus aureus [15]): Active | Activity (DNA): Not active; Compound Exhibited Weak Affinity | Activity (Staphylococcus aureus [16]): Active | MIC (Staphylococcus aureus [17]): 4 µM | Activity (Staphylococcus aureus [18]): Active | Activity (Staphylococcus aureus [19]): Active | Activity (Staphylococcus aureus [20]): Active | Activity (Staphylococcus aureus [21]): 100% | Activity (Staphylococcus aureus [22]): Active | Activity (Staphylococcus aureus [23]): Active | Activity (Staphylococcus aureus [24]): Active | Activity [25]: Non-toxic | Activity (Staphylococcus aureus [26]): Active | Activity [27]: Toxic | Activity (Staphylococcus aureus [28]): Time-dependent-effect
